# Assay results reported in US20170129916A1, “NOVEL BETULINIC PROLINE IMIDAZOLE DERIVATIVES AS HIV INHIBITORS” (HETERO RESEARCH FOUNDATION, priority 2014, published 2017).
# Assay: Single dose oral pharmacokinetic study
# Format: in vivo
# Conditions: mouse, mice, 30 mg/kg, plasma; for AUC(0-t): read-out: Mice oral PK @30 mg/kg AUC 0-t; for Cmax: read-out: Mice oral PK @30 mg/kg Cmax
# Method: The test item was administered through oral route to animals (rat/mice) at 30 mg/kg dose in a suitable vehicle at 10 ml/kg dose volume. Blood samples (˜50 uL at each time point) were collected from retro-orbital plexus using K3 EDTA as anticoagulant in eppend; orf tubes at defined time intervals under light ether anesthesia. The samples were centrifuged at 3500×g to separate plasma and stored at −80° C. until analysis.
# Sample analysis: Test samples were analyzed using LC-MS-MS after developing fit-for-purpose method for each of test compound.
SMILES,AUC(0-t) [µg·h/mL],Cmax [ng/mL]
"C=C(C)[C@@H]1CC[C@]2(C(=O)N3CCC[C@H]3c3ncc(-c4ccc(C(F)(F)F)cc4)[nH]3)CC[C@]3(C)[C@H](CC[C@@H]4[C@@]5(C)CC[C@H](OC(=O)[C@H]6C[C@@H](C(=O)O)C6(C)C)C(C)(C)[C@@H]5CC[C@]43C)[C@@H]12 [Compound 6, (1R,3S)-2,2-dimethyl-3-((((1R,3aS,5aR,5bR,7aR,9S,11aR,11bR,13aR,13bR)-5a,5b,8,8,11a-pentamethyl-1-(prop-1-en-2-yl)-3a-((S)-2-(5-(4-(trifluoromethyl)phenyl)-1H-imidazol-2-yl)pyrrolidine-1-carbonyl)icosahydro-1H-cyclopenta[a]chrysen-9-yl)oxy)carbonyl)cyclobutane-1-carboxylic acid]",93.4,3100
"C=C(C)[C@@H]1CC[C@]2(C(=O)N3CCC[C@H]3c3ncc(-c4ccc(Cl)cc4)[nH]3)CC[C@]3(C)[C@H](CC[C@@H]4[C@@]5(C)CC[C@H](OC(=O)[C@H]6C[C@@H](C(=O)O)C6(C)C)C(C)(C)[C@@H]5CC[C@]43C)[C@@H]12 [Compound 19, (1R,3S)-3-((((1R,3aS,5aR,5bR,7aR,9S,11aR,11bR,13aR,13bR)-3a-((S)-2-(5-(4-chlorophenyl)-1H-imidazol-2-yl)pyrrolidine-1-carbonyl)-5a,5b,8,8,11a-pentamethyl-1-(prop-1-en-2-yl)icosahydro-1H-cyclopenta[a]chrysen-9-yl)oxy)carbonyl)-2,2-dimethylcyclobutane-1-carboxylic acid]",183,7500
"C=C(C)[C@@H]1CC[C@]2(C(=O)N3C4CCC3CC(n3c(C)nnc3C(C)C)C4)CC[C@]3(C)[C@H](CC[C@@H]4[C@@]5(C)CC[C@H](OC(=O)[C@H]6C[C@@H](C(=O)O)C6(C)C)C(C)(C)[C@@H]5CC[C@]43C)[C@@H]12 (stereo partly drawn) [Compound 38, (1R,3S)-3-((((1R,3aS,5aR,5bR,7aR,9S,11aR,11bR,13aR,13bR)-3a-((1R,3R,5S)-3-(3-isopropyl-5-methyl-4H-1,2,4-triazol-4-yl)-8-azabicyclo[3.2.1]octane-8-carbonyl)-5a,5b,8,8,11a-pentamethyl-1-(prop-1-en-2-yl)icosahydro-1H-cyclopenta[a]chrysen-9-yl)oxy)carbonyl)-2,2-dimethylcyclobutane-1-carboxylic acid]",127,7350
"C=C(C)[C@@H]1CC[C@]2(C(=O)N3CCC[C@H]3c3ncc(-c4ccccn4)[nH]3)CC[C@]3(C)[C@H](CC[C@@H]4[C@@]5(C)CC[C@H](OC(=O)CC(C)(C)C(=O)O)C(C)(C)[C@@H]5CC[C@]43C)[C@@H]12 [Compound 39, 2,2-dimethyl-4-oxo-4-(((1R,3aS,5aR,5bR,7aR,9S,11aR,11bR,13aR,13bR)-5a,5b,8,8,11a-pentamethyl-1-(prop-1-en-2-yl)-3a-((S)-2-(5-(pyridin-2-yl)-1H-imidazol-2-yl)pyrrolidine-1-carbonyl)icosahydro-1H-cyclopenta[a]chrysen-9-yl)oxy)butanoic acid]",80.9,5690
"C=C(C)[C@@H]1CC[C@]2(C(=O)N3CCC[C@H]3c3ncc(-c4ccc(F)cc4)[nH]3)CC[C@]3(C)[C@H](CC[C@@H]4[C@@]5(C)CC[C@H](OC(=O)CC(C)(C)CC(=O)O)C(C)(C)[C@@H]5CC[C@]43C)[C@@H]12 [Compound 41, 5-(((1R,3aS,5aR,5bR,7aR,9S,11aR,11bR,13aR,13bR)-3a-((S)-2-(5-(4-fluorophenyl)-1H-imidazol-2-yl)pyrrolidine-1-carbonyl)-5a,5b,8,8,11a-pentamethyl-1-(prop-1-en-2-yl)icosahydro-1H-cyclopenta[a]chrysen-9-yl)oxy)-3,3-dimethyl-5-oxopentanoic acid]",258,14500
"C=C(C)[C@@H]1CC[C@]2(C(=O)N3C4CCC3CC(n3c(C)nnc3C(C)C)C4)CC[C@]3(C)[C@H](CC[C@@H]4[C@@]5(C)CC[C@H](OC(=O)CC(C)(C)C(=O)O)C(C)(C)[C@@H]5CC[C@]43C)[C@@H]12 (stereo partly drawn) [Compound 49, 4-(((1R,3aS,5aR,5bR,7aR,9S,11aR,11bR,13aR,13bR)-3a-((1R,3R,5S)-3-(3-isopropyl-5-methyl-4H-1,2,4-triazol-4-yl)-8-azabicyclo[3.2.1]octane-8-carbonyl)-5a,5b,8,8,11a-pentamethyl-1-(prop-1-en-2-yl)icosahydro-1H-cyclopenta[a]chrysen-9-yl)oxy)-2,2-dimethyl-4-oxobutanoic acid]",111,10800
"COCCOc1ccc(-c2cnc([C@@H]3CCCN3C(=O)[C@]34CC[C@@H](C5(C)CC5)[C@@H]3[C@H]3CC[C@@H]5[C@@]6(C)CC[C@H](OC(=O)[C@H]7C[C@@H](C(=O)O)C7(C)C)C(C)(C)[C@@H]6CC[C@@]5(C)[C@]3(C)CC4)[nH]2)cc1 [Compound 52, (1R,3S)-3-((((1R,3aS,5aR,5bR,7aR,9S,11aR,11bR,13aR,13bR)-3a-((S)-2-(5-(4-(2-methoxyethoxy)phenyl)-1H-imidazol-2-yl)pyrrolidine-1-carbonyl)-5a,5b,8,8,11a-pentamethyl-1-(1-methylcyclopropyl)icosahydro-1H-cyclopenta[a]chrysen-9-yl)oxy)carbonyl)-2,2-dimethylcyclobutane-1-carboxylic acid]",273,9610
"CC1([C@@H]2CC[C@]3(C(=O)N4CCC[C@H]4c4ncc(-c5ccc[n+]([O-])c5)[nH]4)CC[C@]4(C)[C@H](CC[C@@H]5[C@@]6(C)CC[C@H](OC(=O)[C@H]7C[C@@H](C(=O)O)C7(C)C)C(C)(C)[C@@H]6CC[C@]54C)[C@@H]23)CC1 [Compound 53, 3-(2-((S)-1-((1R,3aS,5aR,5bR,7aR,9S,11aR,11bR,13aR,13bR)-9-(((1S,3R)-3-carboxy-2,2-dimethylcyclobutane-1-carbonyl)oxy)-5a,5b,8,8,11a-pentamethyl-1-(1-methylcyclopropyl)icosahydro-1H-cyclopenta[a]chrysene-3a-carbonyl)pyrrolidin-2-yl)-1H-imidazol-5-yl)pyridine-1-oxide]",471,14700
"Cc1nnc(C(C)C)n1C1CCN(C(=O)[C@]23CC[C@@H](C4(C)CC4)[C@@H]2[C@H]2CC[C@@H]4[C@@]5(C)CC[C@H](OC(=O)[C@H]6C[C@@H](C(=O)O)C6(C)C)C(C)(C)[C@@H]5CC[C@@]4(C)[C@]2(C)CC3)CC1 [Compound 58, (1R,3S)-3-((((1R,3aS,5aR,5bR,7aR,9S,11aR,11bR,13aR,13bR)-3a-(4-(3-isopropyl-5-methyl-4H-1,2,4-triazol-4-yl)piperidine-1-carbonyl)-5a,5b,8,8,11a-pentamethyl-1-(1-methylcyclopropyl)icosahydro-1H-cyclopenta[a]chrysen-9-yl)oxy)carbonyl)-2,2-dimethylcyclobutane-1-carboxylic acid]",104,3050
"Cc1nnc(C(C)C)n1C1CC2CCC(C1)N2C(=O)[C@]12CC[C@@H](C3(C)CC3)[C@@H]1[C@H]1CC[C@@H]3[C@@]4(C)CC[C@H](OC(=O)[C@H]5C[C@@H](C(=O)O)C5(C)C)C(C)(C)[C@@H]4CC[C@@]3(C)[C@]1(C)CC2 (stereo partly drawn) [Compound 60, (1R,3S)-3-((((1R,3aS,5aR,5bR,7aR,9S,11aR,11bR,13aR,13bR)-3a-((1R,3R,5S)-3-(3-isopropyl-5-methyl-4H-1,2,4-triazol-4-yl)-8-azabicyclo[3.2.1]octane-8-carbonyl)-5a,5b,8,8,11a-pentamethyl-1-(1-methylcyclopropyl)icosahydro-1H-cyclopenta[a]chrysen-9-yl)oxy)carbonyl)-2,2-dimethylcyclobutane-1-carboxylic acid]",295,6520
"Cc1nnc(C(C)C)n1C1CCN(C(=O)[C@]23CC[C@@H](C4(C)CC4)[C@@H]2[C@H]2CC[C@@H]4[C@@]5(C)CC[C@H](OC(=O)CC(C)(C)C(=O)O)C(C)(C)[C@@H]5CC[C@@]4(C)[C@]2(C)CC3)CC1 [Compound 69, 4-(((1R,3aS,5aR,5 bR,7aR,9S,11aR,11bR,13aR,13bR)-3a-(4-(3-isopropyl-5-methyl-4H-1,2,4-triazol-4-yl)piperidine-1-carbonyl)-5a,5b,8,8,11a-pentamethyl-1-(1-methylcyclopropyl)icosahydro-1H-cyclopenta[a]chrysen-9-yl)oxy)-2,2-dimethyl-4-oxobutanoic acid]",238,16700
"Cc1nnc(C(C)C)n1C1CC2CCC(C1)N2C(=O)[C@]12CC[C@@H](C3(C)CC3)[C@@H]1[C@H]1CC[C@@H]3[C@@]4(C)CC[C@H](OC(=O)CC(C)(C)C(=O)O)C(C)(C)[C@@H]4CC[C@@]3(C)[C@]1(C)CC2 (stereo partly drawn) [Compound 71, 4-(((1R,3aS,5aR,5bR,7aR,9S,11aR,11bR,13aR,13bR)-3a-((R,3R,5S)-3-(3-isopropyl-5-methyl-4H-1,2,4-triazol-4-yl)-8-azabicyclo[3.2.1]octane-8-carbonyl)-5a,5b,8,8,11a-pentamethyl-1-(1-methylcyclopropyl)icosahydro-1H-cyclopenta[a]chrysen-9-yl)oxy)-2,2-dimethyl-4-oxobutanoic acid]",298,15800
